From article PMC12811996, “Exploration and Characterization of the Antimalarial Activity of Pyrimidine‐2,4‐Diamines for which Resistance is Mediated by the ABCI3 Transporter” (Chemmedchem, 2025)
Where two headings read alike, the source gives them in different places.

How the values were obtained:
[1] = test system: P. falciparum 3D7 parasites; test: P. falciparum 3D7 asexual stage parasite LDH assay, 72 h; type: cell-based, Plasmodium falciparum
Experimental: (§1) To establish the SAR, the antiparasitic activity of the analogs was determined using an assay that measures the lactate dehydrogenase (LDH) activity of asexual P. falciparum 3D7 parasites after 72 h of compound treatment. Mammalian cytotoxicity was monitored using an assay that measures the growth of HepG2 cells using Cell Titer‐Glo after 48 h of compound treatment.
This was performed as previously described, whereby lactate dehydrogenase (LDH) was used as a metabolic marker for parasite growth after a 72‐h incubation period.^[ [14] ^, [30] ^]

physchem [2] = type: physicochemical; conditions: kinetic in PBS, pH 7.4; read-out: Aqueous solubility pH 7.4
Experimental: (§2) The aqueous solubility and in vitro metabolic stability of selected analogs were assessed to determine if they had favorable parameters (Table 9 ).These analogs were selected based on their potency and the modifications that were incorporated, which led to compounds 55 and 56. […] The high lipophilicity of analogs 1, 11, and 16 was not favorable for metabolic stability.
(§3) This was performed as previously described.^[ [14] ^, [16] ^]

in vitro [3] = type: in vitro ADME
Experimental: as §2, §3

physchem [4] = type: physicochemical; conditions: shake-flask method; listed as 1
Experimental: as §3

Albumax = Albumax (Bos taurus, UniProt P02769); test: in vitro; type: in vitro ADME
Albumax, sequence (P02769 25-607): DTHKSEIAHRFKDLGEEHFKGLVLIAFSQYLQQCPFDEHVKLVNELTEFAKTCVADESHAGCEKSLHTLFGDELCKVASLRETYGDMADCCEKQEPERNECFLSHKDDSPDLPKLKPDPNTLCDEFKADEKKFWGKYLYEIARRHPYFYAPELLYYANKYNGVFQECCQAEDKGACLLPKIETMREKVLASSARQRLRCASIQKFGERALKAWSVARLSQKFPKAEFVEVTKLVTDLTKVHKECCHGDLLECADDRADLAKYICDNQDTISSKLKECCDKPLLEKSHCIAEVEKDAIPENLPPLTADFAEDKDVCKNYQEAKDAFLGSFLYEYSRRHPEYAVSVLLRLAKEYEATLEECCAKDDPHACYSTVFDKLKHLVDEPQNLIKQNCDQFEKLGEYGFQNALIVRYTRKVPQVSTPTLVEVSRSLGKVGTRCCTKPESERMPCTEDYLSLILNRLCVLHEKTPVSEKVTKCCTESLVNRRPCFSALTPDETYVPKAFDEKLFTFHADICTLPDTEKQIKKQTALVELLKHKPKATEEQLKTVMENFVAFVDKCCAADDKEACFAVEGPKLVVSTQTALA

[5] = test system: W482-resistant P. falciparum 3D7 populations; test: 72 h Pf LDH assay against W482-selected populations; type: cell-based, Plasmodium falciparum; conditions: for EC50: 72 h Pf LDH assay
Experimental: To identify the mechanism by which the pyrimidine‐2,4‐diamine class kills the P. falciparum parasite, a forward genetic study was performed on the hit compound W482 (1). We selected W482 (1) as the representative compound from this class, as the forward genetics and phenotype assays were performed in parallel to the medicinal chemistry described in the prior section. […] Genomic DNA was then prepared from these two resistant populations and the parental 3D7 strain and whole genome sequenced.
Figure 3 The activity of W482 (1) against W482‐selected populations and their 3D7 parental. The data are mean and SD from 3 independent 72 h Pf LDH assays.
This was performed as previously described.^[ [14] ^] Briefly, 3D7 wildtype parasites initially exposed to 2 × EC50 (0.3 µM) of W482 (1) and incremental increases in EC50 were applied until 10 × EC50 was reached. The resistant populations were not cloned for whole‐genome sequencing.

PfABCI3-HAreg parasites = test: Parasite proliferation assay with PfABCI3-HAreg parasites (SYBR Safe, 72 h); type: cell-based, Plasmodium falciparum; conditions: mean ± SEM, n = 4; for IC50: 72 h
Experimental: Glucosamine (GlcN) (5 mM) was used to reduce the level of pfabci3‐ha. Chloroquine and MMV020746 were used as negative and positive controls, respectively.
Figure 4 Sensitivity of PfABCI3‐HAreg parasites to growth inhibition by chloroquine (a), MMV020746 (b), and W482 (1) (c). Data for parasites in which pfabci3‐ha mRNA was reduced (+ GlcN) are shown in red. GlcN (5 mM) was added to the parasites 48 h prior to the assay and maintained throughout the 72 h assay. The data for parasites expressing a normal level of PfABCI3‐HA (‐GlcN) are shown in black. The data in all panels are from four independent experiments performed on different days. […] Parasites that were treated with or without GlcN (5 mM) were tested concurrently in each assay. TEXT PRINTED IN THE PICTURE: chloroquine: IC50 ± SEM (nM) - GlcN: 12.6 ± 1.1; IC50 ± SEM (nM) + GlcN: 11.9 ± 1.5 | MMV020746: IC50 ± SEM (nM) - GlcN: 104 ± 13; IC50 ± SEM (nM) + GlcN: 32.9 ± 3.9 | W482 (1): IC50 ± SEM (nM) - GlcN: 312 ± 28; IC50 ± SEM (nM) + GlcN: 153 ± 12
Parasite proliferation assays were performed with PfABCI3‐HAreg parasites^[ [19] ^] according to a previously described method, with the fluorescent nucleic acid intercalating dye SYBR Safe used to measure parasite viability.^[ [32] ^, [33] ^] The assays were commenced with cultures consisting of predominantly ring‐stage parasites with a starting hematocrit of 1% and parasitemia of 1%. […] It was shown previously that there is a reduction in pfabci3‐ha mRNA in PfABCI3‐HAreg exposed to 5 mM GlcN and a decrease in parasite viability over time.^[ [19] ^] The level of knockdown of the protein is not known.

[6] = test system: P. falciparum 3D7 parasites; test: Stage of asexual arrest assay; type: cell-based, Plasmodium falciparum
Experimental: The asexual stage of arrest and parasite reduction ratio (PRR) assays were undertaken on W482 (1) to assess the speed‐of‐asexual kill and the alignment of the pyrimidine‐2,4‐diamine class with the Target Candidate Profiles (TCPs).^[ [27] ^] […] Parasite samples were collected from the culture at 12, 24, 36, 48, and 60 h, and microscopy was performed on Giemsa‐stained thin blood‐smeared samples. These samples were also quantified with flow cytometry using SYBR Green.
(§4) Figure 5 a) Stage of arrest assay showing that W482 (1) blocks ring‐trophozoite transition in the asexual stage of P. falciparum. […] Replicates of Giemsa‐stained blood smears can be found in Figure S4 (Supporting Information). c) Parasite reduction ratio assay conducted at 10 × EC50 of W482 (1). Data represent means and SD of P. falciparum 3D7 parasite survival measuring 3 independent replicates by two‐color flow cytometry using CFDA‐SE and Hoescht 33,342 staining.

[7] = test system: Plasmodium falciparum strain 3D7A; test: Parasite reduction ratio assay; type: cell-based; conditions: for asexual speed-of-kill profile: 10 × EC50, 24 and 48 h treatment, P. falciparum 3D7
From the text: as §4
Samples of parasites were collected at 24‐ and 48‐hour timepoints, whereby the compound was washed out and fresh erythrocytes pre‐labeled with intracellular dye were added. Samples were then incubated for 18 days, and then the number of viable parasites was quantified by flow cytometry (Figure 5c).
This assay was conducted following a previously described protocol using the Plasmodium falciparum strain 3D7A, MRA‐151.^[ [19] ^, [28] ^] The human biological samples used in the study were sourced ethically, and their research use was conducted in accordance with the terms of informed consent under an IRB/EC‐approved protocol.

in vitro [8] = type: cell-based; conditions: human; HepG2 viability over 48 h, Cell Titer-Glo; means and SDs, 3 experiments; read-out: HepG2 CC50 (SD)
Experimental: as §1
This was performed as previously described.^[ [14] ^, [31] ^]

[9] = test system: early stage (I–III) gametocytes; conditions: at 2.5 µM; cited from earlier work
[10] = test system: late stage (IV‐V) gametocytes; conditions: at 5 µM; cited from earlier work
P. berghei liver stage = conditions: at 50 µM; cited from earlier work
[11] = test system: P. falciparum 3D7 parasites; conditions: asexual P. falciparum 3D7; hits from GSK TCAMS screen / MMV Malaria Box; cited from earlier work
hemoglobin catabolism = test system: hemoglobin catabolism; set-up: method as in PMID 27572391; conditions: previous metabolomic profiling; cited from earlier work
[12] = Plasmodium falciparum, 3D7, 72 h, P. falciparum 3D7, LDH activity, 72 h exposure, means and SDs, 3 or more experiments, read-out: Pf parasite EC50 (SD)

Compound: 3‐Cyclohexyl‐N‐(4‐((4‐(dimethylamino)‐6‐methylpyrimidin‐2‐yl)amino)phenyl)propenamide [W482 (1)]
- EC50 ([1]; parental 3D7 in resistance selection study, 72 h Pf LDH assay, 3 independent assays, read-out: EC50 against parental 3D7): 197 nM
- solubility (physchem [2]): 3.8 µM
- Human liver microsomes CLint (in vitro [3]): 174 µL/min/mg
- Rat hepatocytes CLint (in vitro [3]): >92 µL/min/10^6 cells
- Human liver microsomes CLint (in vitro [3]; listed as 1): > 117 µL/min/mg
- eLogD (physchem [4]): 4.6–5.0
- Albumax binding % bound (Albumax): 99.1%
- EC50 ([5]; population #1, read-out: EC50 against W482-selected population #1): 396 nM
- EC50 ([5]; population #2, read-out: EC50 against W482-selected population #2): 407 nM
- fold decreased activity of resistant populations compared to parental 3D7 ([5]; two recovered populations vs parental 3D7): 2 fold
- IC50 (PfABCI3-HAreg parasites; PfABCI3-HAreg parasites expressing normal level of PfABCI3-HA (-GlcN)): 312 ± 28 nM
- IC50 (PfABCI3-HAreg parasites; PfABCI3-HAreg parasites with reduced pfabci3-ha mRNA (+ 5 mM GlcN)): 153 ± 12 nM
- fold lower IC50 for +GlcN parasites than -GlcN parasites (PfABCI3-HAreg parasites): 2.0 ± 0.1 fold
- asexual stage of arrest ([6]; 10 × EC50 (1.4 µM) for 60 h, Giemsa-stained smears): ring to trophozoite transition stage
- percentage of parasitemia over time ([6]; 10 × EC50 (1.4 µM), SYBR Green flow cytometry): declines after 36 h
- asexual speed-of-kill profile [7]: fast killing profile
- lag phase ([7]; parasite killing profile): 24 h

Compound: CCN(CC)c1cc(C)nc(Nc2ccc(NC(=O)CCC3CCCCC3)cc2)n1 [Compound 4]
- EC50 [1, 12]: 520 nM
- CC50 (in vitro [8]): 18000 nM

Compound: Cc1cc(N2CCCC2)nc(Nc2ccc(NC(=O)CCC3CCCCC3)cc2)n1 [Compound 7, 3‐Cyclohexyl‐N‐(4‐((4‐methyl‐6‐(pyrrolidin‐1‐yl)pyrimidin‐2‐yl)amino)phenyl)propanamide]
- EC50 [1, 12]: 540 nM
- CC50 (in vitro [8]): 12600 nM

Compound: CN(C)c1cc(Nc2ccc(NC(=O)CCC3CCCCC3)cc2)nc2ccccc12 [Compound 22, 3‐Cyclohexyl‐N‐(4‐((4‐(dimethylamino)quinolin‐2‐yl)amino)phenyl)propanamide]
- EC50 [1, 12]: 2470 nM
- CC50 (in vitro [8]): 15900 nM

Compound: Cc1cc(N(C)C)nc(Nc2ccc(NC(=O)Nc3ccccc3)cc2)n1 [MMV020243 (2)]
- inhibition of early stage (I–III) gametocytes [9]: 67%
- inhibition of late stage (IV‐V) gametocytes [10]: 2%
- inhibition of P. berghei liver stage development (P. berghei liver stage): 2%

Compound: Cc1cc(N2CCCC2)nc(Nc2ccc(NC(=O)CCc3ccccc3)cc2)n1 [MMV396669 (3)]
- EC50 [11]: 1070 nM
- inhibition of early stage (I–III) gametocytes [9]: 79%
- inhibition of late stage (IV‐V) gametocytes [10]: 21%
- inhibition of P. berghei liver stage development (P. berghei liver stage): 3%
- metabolomic profile (hemoglobin catabolism): peptide signature consistent with hemoglobin catabolism inhibition

Compound: CCc1nc(N)nc(N)c1-c1ccc(Cl)cc1 [Pyrimethamine, reference compound]
- asexual speed-of-kill profile [7]: moderate killing rate
